The test has as its target T1, recombinant human cGAS (aa147-522) (Homo sapiens, UniProt Q8N884).
T1 construct: recombinant human cGAS (aa147-522); His6-SUMO (cleaved yes); made in house; host or cells: E. coli BL21/pLys
Description: In vitro inhibition assay of cGAS activity (ATP consumption, KinaseGlo Max). Format: biochemical. The note with it: Table 3, read-out: cGAS Inhibition Results IC50. In outline: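 De-tagged recombinant human cGAS (aa147-522, 1.5 μg/mL) was incubated 20 min at 37 °C with herring testis DNA, 6.6 μM ATP and 0.1 mM GTP in Tris pH 7.5/MgCl2 buffer plus serial compound dilutions. Remaining ATP was read by KinaseGlo Max luminescence, and IC50 was fitted from % ATP consumption versus log concentration.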

Bounds are passed on as bounds.

T1 sequence (Q8N884 147-522): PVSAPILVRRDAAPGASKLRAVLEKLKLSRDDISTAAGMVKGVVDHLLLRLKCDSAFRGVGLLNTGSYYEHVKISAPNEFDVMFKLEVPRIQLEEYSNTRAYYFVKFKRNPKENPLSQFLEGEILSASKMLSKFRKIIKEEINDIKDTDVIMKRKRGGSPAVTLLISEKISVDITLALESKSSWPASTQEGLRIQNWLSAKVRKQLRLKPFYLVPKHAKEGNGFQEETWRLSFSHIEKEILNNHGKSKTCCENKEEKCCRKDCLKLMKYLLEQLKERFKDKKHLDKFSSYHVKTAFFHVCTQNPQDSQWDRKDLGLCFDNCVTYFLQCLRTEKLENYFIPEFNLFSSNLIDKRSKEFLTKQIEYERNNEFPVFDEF

Usually IC50 stands for the concentration at which inhibition is half-maximal. Turning to `O=c1nc([C@@H]2CCCN2c2cc(-n3ccnc3)c3ccc(Cl)c(Cl)c3n2)o[nH]1` [I-605, (S)-5-(1-(7,8-dichloro-4-(1H-imidazol-1-yl)quinolin-2-yl)pyrrolidin-2-yl)-1,2,4-oxadiazol-3(2H)-one], the IC50 was more than 30 µM.
To `O=C(O)[C@@H]1C[C@@H](OC(=O)N2CCOCC2)CN1c1cc(-n2ccnc2)c2ccc(Cl)c(Cl)c2n1` [I-606, (2S,4R)-1-(7,8-dichloro-4-(1H-imidazol-1-yl)quinolin-2-yl)-4-((morpholine-4-carbonyl)oxy)pyrrolidine-2-carboxylic acid] belongs 2 to 30 µM.
The same measure for `O=C(O)CNC(=O)O[C@@H]1C[C@@H](C(=O)O)N(c2cc(-n3ccnc3)c3ccc(Cl)c(Cl)c3n2)C1` [I-607]: less than 2 µM; for `NC(=O)CNC(=O)[C@@H]1CCCN1c1cc(-n2ccnc2)c2ccc(Cl)c(Cl)c2n1` [I-608]: 2 to 30 µM; for `COC(=O)c1cccc(S(=O)(=O)NCCN(C)c2cc(-n3ccnc3)c3ccc(Cl)c(Cl)c3n2)c1` [I-609]: more than 30 µM.
For the compound `COCCS(=O)(=O)NCCN(C)c1cc(-n2ccnc2)c2ccc(Cl)c(Cl)c2n1` [I-610], the IC50 was less than 2 µM.
Take `COC(=O)c1ccc(S(=O)(=O)NCCN(C)c2cc(-n3ccnc3)c3ccc(Cl)c(Cl)c3n2)cc1` [I-611]: the IC50 is more than 30 µM.
Turning to `CN(CCNS(=O)(=O)c1ccc(C(=O)O)cc1)c1cc(-n2ccnc2)c2ccc(Cl)c(Cl)c2n1` [I-612], the IC50 was 2 to 30 µM.
On to `CN(CCNC(=O)CO)c1cc(-n2ccnc2)c2ccc(Cl)c(Cl)c2n1` [I-613], for which the IC50 was less than 2 µM.
The same measure for `CN(CCNC(=O)CCO)c1cc(-n2ccnc2)c2ccc(Cl)c(Cl)c2n1` [I-614]: 2 to 30 µM.
For the compound `CN(CCNC(=O)C1CCC(C(=O)O)C1)c1cc(-n2ccnc2)c2ccc(Cl)c(Cl)c2n1` (centres unmarked) [I-615], the IC50 was in the range of 2 to 30 µM.
Consider `CN(CCNC(=O)CCC(=O)O)c1cc(-n2ccnc2)c2ccc(Cl)c(Cl)c2n1` [I-616], for which the IC50 was less than 2 µM.
Take `CN(CCNS(=O)(=O)CCC(=O)O)c1cc(-n2ccnc2)c2ccc(Cl)c(Cl)c2n1` [I-617]: the half-inhibitory concentration (IC50) is less than 2 µM.
As to `CN(CCNS(=O)(=O)CC(=O)O)c1cc(-n2ccnc2)c2ccc(Cl)c(Cl)c2n1` [I-618], the IC50 is less than 2 µM.
On to `CN(CCNC(=O)c1cccc(O)c1)c1cc(-n2ccnc2)c2ccc(Cl)c(Cl)c2n1` [I-619], for which the IC50 lay within 2 to 30 µM.
Turning to `CN(CCNC(=O)c1cccc(C(=O)O)c1)c1cc(-n2ccnc2)c2ccc(Cl)c(Cl)c2n1` [I-620], the IC50 was 2 to 30 µM.
In the case of `CN(CCN1C(=O)c2ccccc2S1(=O)=O)c1cc(-n2ccnc2)c2ccc(Cl)c(Cl)c2n1` [I-621], the half-inhibitory concentration (IC50) was in the range of 2 to 30 µM.
To `CN(CCNC(=O)C1CCCC1C(=O)O)c1cc(-n2ccnc2)c2ccc(Cl)c(Cl)c2n1` (centres unmarked) [I-622] belongs less than 2 µM; to `CN(CCNS(=O)(=O)c1cccc(C(=O)O)c1)c1cc(-n2ccnc2)c2ccc(Cl)c(Cl)c2n1` [I-623], 2 to 30 µM; to `CN(CCS(=O)(=O)NCCO)c1cc(-n2ccnc2)c2ccc(Cl)c(Cl)c2n1` [I-624, 2-((7,8-dichloro-4-(1H-imidazol-1-yl)quinolin-2-yl)(methyl)amino)-N-(2-hydroxyethyl)ethane-1-sulfonamide], less than 2 µM.
Regarding `CN(CCS(=O)(=O)NC1CCC(C(=O)O)C1)c1cc(-n2ccnc2)c2ccc(Cl)c(Cl)c2n1` (centres unmarked) [I-625], the IC50 is less than 2 µM.
Consider `CN(CCS(=O)(=O)N1CCCC1C(=O)O)c1cc(-n2ccnc2)c2ccc(Cl)c(Cl)c2n1` (centres unmarked) [I-626], for which the IC50 was less than 2 µM.
Regarding `CN(CCS(=O)(=O)N1CCC(C(=O)O)C1)c1cc(-n2ccnc2)c2ccc(Cl)c(Cl)c2n1` (centres unmarked) [I-627], the IC50 was less than 2 µM.
To `CN(CCS(=O)(=O)NC1CCCC(C(=O)O)C1)c1cc(-n2ccnc2)c2ccc(Cl)c(Cl)c2n1` (centres unmarked) [I-628] belongs less than 2 µM.
To `CN(CCS(=O)(=O)N1CCCCC1C(=O)O)c1cc(-n2ccnc2)c2ccc(Cl)c(Cl)c2n1` (centres unmarked) [I-629] belongs less than 2 µM.
The same measure for `CN(CCS(=O)(=O)NCCC(=O)O)c1cc(-n2ccnc2)c2ccc(Cl)c(Cl)c2n1` [I-630]: less than 2 µM; for `CN(CCS(=O)(=O)N1CCCC(C(=O)O)C1)c1cc(-n2ccnc2)c2ccc(Cl)c(Cl)c2n1` (centres unmarked) [I-631]: less than 2 µM.
Regarding `CN(CCS(=O)(=O)NCCCO)c1cc(-n2ccnc2)c2ccc(Cl)c(Cl)c2n1` [I-632], the IC50 was less than 2 µM.
Regarding `CN(CCS(=O)(=O)NCC(=O)O)c1cc(-n2ccnc2)c2ccc(Cl)c(Cl)c2n1` [I-633], the IC50 was less than 2 µM.
The same measure for `CN(CCN(CCC(=O)O)S(C)(=O)=O)c1cc(-n2ccnc2)c2ccc(Cl)c(Cl)c2n1` [I-634, 3-(N-(2-((7,8-dichloro-4-(1H-imidazol-1-yl)quinolin-2-yl)(methyl)amino)ethyl)methylsulfonamido) propanoic acid]: less than 2 µM.
As for `CN(CCN(CC(=O)O)S(C)(=O)=O)c1cc(-n2ccnc2)c2ccc(Cl)c(Cl)c2n1` [I-635, N-(2-((7,8-dichloro-4-(1H-imidazol-1-yl)quinolin-2-yl)(methyl)amino)ethyl)-N-(methylsulfonyl)glycine], the IC50 was less than 2 µM.
For the compound `CN(CCN(Cc1cccc(C(=O)O)c1)S(C)(=O)=O)c1cc(-n2ccnc2)c2ccc(Cl)c(Cl)c2n1` [I-636, 3-((N-(2-((7,8-dichloro-4-(1H-imidazol-1-yl)quinolin-2-yl)(methyl)amino)ethyl)methylsulfonamido)methyl)benzoic acid], the IC50 is less than 2 µM.
For `O=C1NC(=O)[C@H](CS(=O)(=O)NC[C@@H]2CCCN2c2cc(-n3ccnc3)c3ccc(Cl)c(Cl)c3n2)N1` [I-637], the IC50 is less than 2 µM.
As for `O=C(O)c1cccc(S(=O)(=O)NC[C@@H]2CCCN2c2cc(-n3ccnc3)c3ccc(Cl)c(Cl)c3n2)c1` [I-638], the IC50 is 2 to 30 µM.
To `O=C(O)CS(=O)(=O)NC[C@@H]1CCCN1c1cc(-n2ccnc2)c2ccc(Cl)c(Cl)c2n1` [I-639] belongs less than 2 µM; to `O=C(O)c1ccc(S(=O)(=O)NC[C@@H]2CCCN2c2cc(-n3ccnc3)c3ccc(Cl)c(Cl)c3n2)cc1` [I-640], less than 2 µM; to `O=C(NC[C@@H]1CCCN1c1cc(-n2ccnc2)c2ccc(Cl)c(Cl)c2n1)c1cc(O)no1` [I-641], less than 2 µM.
The same measure for `CC(=O)O[C@H]1CCN(c2cc(-n3ccnc3)c3ccc(Cl)c(Cl)c3n2)[C@@H]1C(=O)O` [I-643, (2S,3S)-3-acetoxy-1-(7,8-dichloro-4-(1H-imidazol-1-yl)quinolin-2-yl)pyrrolidine-2-carboxylic acid]: less than 2 µM; for `CC(C)(C)OC(=O)[C@@H]1CCCN1c1cc(-n2ccnc2)c2ccc(Cl)c(Cl)c2n1` [I-644]: 2 to 30 µM; for `COC(=O)[C@@H]1[C@@H](OC)CCN1c1cc(-n2ccnc2)c2ccc(Cl)c(Cl)c2n1` [I-646, methyl (2S,3S)-1-(7,8-dichloro-4-(1H-imidazol-1-yl)quinolin-2-yl)-3-methoxypyrrolidine-2-carboxylate]: 2 to 30 µM.
The same measure for `COC(=O)[C@@H]1[C@H](OC)CCN1c1cc(-n2ccnc2)c2ccc(Cl)c(Cl)c2n1` [I-647]: 2 to 30 µM; for `COC(=O)[C@@H]1[C@H](OCC(=O)O)CCN1c1cc(-n2ccnc2)c2ccc(Cl)c(Cl)c2n1` [I-648]: 2 to 30 µM; for `O=C(O)[C@@H]1[C@@H](F)CCN1c1cc(-n2ccnc2)c2ccc(Cl)c(Cl)c2n1` [I-651]: less than 2 µM.
For the compound `COC(=O)C1=CCCN1c1cc(-n2ccnc2)c2ccc(Cl)c(Cl)c2n1` [I-652, methyl 1-(7,8-dichloro-4-(1H-imidazol-1-yl)quinolin-2-yl)-4,5-dihydro-1H-pyrrole-2-carboxylate], the IC50 lay within 2 to 30 µM.
The same measure for `COC(=O)CNC(=O)O[C@@H]1CCN(c2cc(-n3ccnc3)c3ccc(Cl)c(Cl)c3n2)[C@@H]1C(=O)OC` [I-653, methyl (2S,3R)-1-(7,8-dichloro-4-(1H-imidazol-1-yl)quinolin-2-yl)-3-(((2-methoxy-2-oxoethyl)carbamoyl)oxy)pyrrolidine-2-carboxylate]: less than 2 µM.
The same measure for `O[C@@H]([C@@H]1CCCN1c1cc(-n2ccnc2)c2ccc(Cl)c(Cl)c2n1)C(F)(F)F` [I-654, (S)-1-((S)-1-(7,8-dichloro-4-(1H-imidazol-1-yl)quinolin-2-yl)pyrrolidin-2-yl)-2,2,2-trifluoroethan-1-ol]: less than 2 µM; for `O[C@H]([C@@H]1CCCN1c1cc(-n2ccnc2)c2ccc(Cl)c(Cl)c2n1)C(F)(F)F` [I-655, (R)-1-((S)-1-(7,8-dichloro-4-(1H-imidazol-1-yl)quinolin-2-yl)pyrrolidin-2-yl)-2,2,2-trifluoroethan-1-ol]: less than 2 µM.
Regarding `OC([C@@H]1CCCN1c1cc(-n2ccnc2)c2ccc(Cl)c(Cl)c2n1)(C(F)(F)F)C(F)(F)F` [I-656, (S)-2-(1-(7,8-dichloro-4-(1H-imidazol-1-yl)quinolin-2-yl)pyrrolidin-2-yl)-1,1,1,3,3,3-hexafluoropropan-2-ol], the IC50 was more than 30 µM.
The same measure for `O=[PH](O)OC[C@@H]1CCCN1c1cc(-n2ccnc2)c2ccc(Cl)c(Cl)c2n1` [I-658, ((5)-1-(7,8-dichloro-4-(1H-imidazol-1-yl)quinolin-2-yl)pyrrolidin-2-yl)methyl hydrogen phosphonate]: less than 2 µM.
To `OC[C@@H]1CCN1c1cc(-n2ccnc2)c2ccc(Cl)c(Cl)c2n1` [I-659] belongs less than 2 µM; to `COC(=O)[C@@H]1c2ccccc2CN1c1cc(-n2ccnc2)c2ccc(Cl)c(Cl)c2n1` [I-660], 2 to 30 µM; to `O=C(O)[C@H](O)[C@@H]1CCCN1c1cc(-n2ccnc2)c2ccc(Cl)c(Cl)c2n1` [I-661, (R)-2-((S)-1-(7,8-dichloro-4-(1H-imidazol-1-yl)quinolin-2-yl)pyrrolidin-2-yl)-2-hydroxyacetic acid], less than 2 µM.
Turning to `COC(=O)C(O)[C@@H]1CCCN1c1cc(-n2ccnc2)c2ccc(Cl)c(Cl)c2n1` (some centres unmarked) [I-662], the IC50 lay in the range of 2 to 30 µM.

(Values after US11873291B2, “Quinoline cGAS antagonist compounds” (ImmuneSensor Therapeutics, Inc., priority 2020, dated 2024).)
